In data set [1] the test system is Acinetobacter baumannii. The experiment in a line: Antibacterial activity against Acinetobacter baumannii ATCC 19606 110. The data set is classed as functional.
The test system of data set [2] is Staphylococcus aureus. The experiment in a line: Antibacterial activity against tetracycline-resistant Staphylococcus aureus 191 infected in iv dosed CD-1 mouse assessed as dose required for 3 log bacterial burden reduction administered 1.5 hr post infection measured after 24 hrs. The data set is classed as functional.
Data set [3] concerns Escherichia coli. The experiment in a line: Antibacterial activity against tetracycline-resistant Escherichia coli 133 infected in iv dosed CD-1 mouse assessed as reduction in bacterial burden administered 1 hr post infection measured after 24 hrs. The data set is classed as functional.
Data set [4] in a line: AUClast in Sprague-Dawley rat at 1 mg/kg, iv by LC/MS-MS analysis. The data set is classed as ADME, organism-based. Also on record: time 0 - last, dose 1 mg/kg, route intravenous. Conditions: plasma.
Data set [5] in a line: Elimination half life in Sprague-Dawley rat at 10 mg/kg, po by LC/MS-MS analysis. Conditions: in vivo, read-out: beta t1/2 (converted). Also on record: dose 10 mg/kg, route oral. It counts as ADME, organism-based.
Data set [6] relates to Escherichia coli. Briefly: Antibacterial activity against tetracycline-resistant Escherichia coli 155. The data set is classed as functional.
The subject of data set [7] is Klebsiella pneumoniae. The experiment in a line: Antibacterial activity against tetracycline-resistant Klebsiella pneumoniae 153. It counts as functional.
The test system of data set [8] is Staphylococcus aureus. Briefly: Antibacterial activity against tetracycline-resistant Staphylococcus aureus 191 infected in iv dosed CD-1 mouse assessed as reduction in bacterial burden administered 1.5 hr post infection measured after 24 hrs. It counts as functional.
The subject of data set [9] is Staphylococcus aureus. The experiment in a line: Antibacterial activity against tetracycline-resistant Staphylococcus aureus 191 infected in iv dosed CD-1 mouse assessed as dose required for 1 log bacterial burden reduction administered 1.5 hr post infection measured after 24 hrs. The data set is classed as functional.
For data set [10], the system named is Streptococcus pneumoniae. Briefly: microbe, parasite or virus in culture. Conditions: ATCC 106 49619. The data set is classed as functional.
Description: Antibacterial activity against Streptococcus pneumoniae ATCC 106 49619
Data set [11] relates to Streptococcus pneumoniae. The experiment in a line: Antibacterial activity against tetracycline-resistant Streptococcus pneumoniae 160. The data set is classed as functional.
Data set [12] relates to Enterococcus faecalis. The experiment in a line: Antibacterial activity against tetracycline-resistant Enterococcus faecalis 159. The data set is classed as functional.
The nature of data set [13]: AUClast in Sprague-Dawley rat at 10 mg/kg, po by LC/MS-MS analysis. The data set is classed as ADME, organism-based. Also on record: dose 10 mg/kg, route oral, time 0 - last. The following applies: plasma.
The test system of data set [14] is Staphylococcus aureus. The experiment in a line: Antibacterial activity against tetracycline- and methicillin-resistant Staphylococcus aureus 161. It counts as functional.
Data set [15] relates to Klebsiella pneumoniae. The experiment in a line: Antibacterial activity against Klebsiella pneumoniae ATCC 109 13883. The data set is classed as functional.
A short description of data set [16]: Oral bioavailability in Sprague-Dawley rat at 10 mg/kg by LC/MS-MS analysis. The following applies: in vivo. It counts as ADME, organism-based.
In data set [17] the test system is Staphylococcus aureus. Briefly: microbe, parasite or virus in culture. It counts as functional. The following applies: 158.
For data set [18], the system named is Enterococcus faecalis. The experiment in a line: Antibacterial activity against Enterococcus faecalis ATCC 103 29212. It counts as functional.
The subject of a further data set is Pseudomonas aeruginosa. The experiment in a line: Antibacterial activity against Pseudomonas aeruginosa ATCC 111 27853. The data set is classed as functional.
Data set [19] has as its system Escherichia coli. Briefly: Antibacterial activity against Escherichia coli ATCC 107 25922. The data set is classed as functional.
Data set [20] deals with Staphylococcus aureus. Briefly: Antibacterial activity against Staphylococcus aureus ATCC 101 29213. It counts as functional.
In data set [21] the test system is Escherichia coli. Briefly: Antibacterial activity against tetracycline-resistant Escherichia coli 133 infected in iv dosed CD-1 mouse assessed as protection from infection administered 1 hr post infection measured after 24 hrs. It counts as functional. Conditions: Escherichia coli, 133, iv; read-out: PD50.
For a further data set, the system named is Enterobacter cloacae. Briefly: Antibacterial activity against Enterobacter cloacae ATCC 108 13047. The data set is classed as functional.
For data set [22], the system named is Staphylococcus aureus. The experiment in a line: Ratio of tigecycline MIC to compound MIC for Staphylococcus aureus ATCC 101 29213. It counts as functional.
Data set [23] has as its system Escherichia coli. Briefly: Ratio of tigecycline MIC to compound MIC for Escherichia coli ATCC 107 25922. The data set is classed as functional.
A further data set concerns the target Bacterial 70S ribosome. The experiment in a line: Inhibition of Escherichia coli ribosome-mediated translation after 60 mins by transcription/translation-coupled luciferase reporter gene assay. It counts as subcellular.
The test system of data set [24] is Escherichia coli. The experiment in a line: Ratio of tetracycline IC50 to compound IC50 for Escherichia coli ribosome-mediated translation. It counts as subcellular.
Data set [25] can be described thus: Apparent volume of distribution in Sprague-Dawley rat at 1 mg/kg, iv by LC/MS-MS analysis. Conditions: in vivo.
Data set [26] can be described thus: Elimination half life in Sprague-Dawley rat at 1 mg/kg, iv by LC/MS-MS analysis. It counts as ADME, organism-based. The following applies: in vivo, read-out: beta t1/2 (converted). Also on record: dose 1 mg/kg, route intravenous.
The nature of data set [27]: (§1) Clearance in Sprague-Dawley rat at 1 mg/kg, iv by LC/MS-MS analysis. The data set is classed as ADME, organism-based. Also on record: dose 1 mg/kg, route intravenous. The following applies: Sprague-Dawley, in vivo.
For data set [28], the system named is Acinetobacter baumannii. Briefly: Ratio of tigecycline MIC to compound MIC for Acinetobacter baumannii ATCC 19606 110. The data set is classed as functional.
Data set [29] concerns Enterococcus faecalis. Briefly: Ratio of tigecycline MIC to compound MIC for Enterococcus faecalis ATCC 103 29212. It counts as functional.
A short description of data set [30]: Oral bioavailability in human. The following applies: in vivo. The data set is classed as ADME, organism-based.
In another data set the test system is Rattus norvegicus. The data set is described as §1. It counts as ADME, organism-based. Also on record: dose 1 mg/kg, route intravenous. Conditions: in vivo.

pIC50: −log10 of the molar value. Values after ≈ are worked out from the molar mass of the structure shown.

Regarding `CN(C)c1cc(NC(=O)CNC(C)(C)C)c(O)c2c1C[C@H]1C[C@H]3[C@H](N(C)C)C(O)=C(C(N)=O)C(=O)[C@@]3(O)C(O)=C1C2=O` [TIGECYCLINE], the MIC in the data set on Acinetobacter baumannii [1] was 0.5 µg/mL (≈ 0.854 µM); in the data set on Escherichia coli [3] it was 0.125 µg/mL (≈ 0.213 µM); in the data set on Escherichia coli [6] it was 1 µg/mL (≈ 1.71 µM); in the data set with Klebsiella pneumoniae [7] it was 1 µg/mL (≈ 1.71 µM); in the data set on Staphylococcus aureus [8], 0.25 µg/mL (≈ 0.427 µM); in the data set with Streptococcus pneumoniae [10] it was 0.0156 µg/mL (≈ 0.0266 µM). Further, the MIC stood at 0.0156 µg/mL (≈ 0.0266 µM) in the data set with Streptococcus pneumoniae [11]; 0.0625 µg/mL (≈ 0.107 µM) in the data set on Enterococcus faecalis [12]; 0.125 µg/mL (≈ 0.213 µM) with Staphylococcus aureus [14]; 0.25 µg/mL (≈ 0.427 µM) in the data set with Klebsiella pneumoniae [15]; 0.125 µg/mL (≈ 0.213 µM) against Staphylococcus aureus [17]; 0.0625 µg/mL (≈ 0.107 µM) in the data set with Enterococcus faecalis [18]. The MIC in the data set on Pseudomonas aeruginosa is 16 µg/mL (≈ 27.3 µM); in the data set on Escherichia coli [19], 0.125 µg/mL (≈ 0.213 µM); against Staphylococcus aureus [20], 0.0625 µg/mL (≈ 0.107 µM); in the data set on Enterobacter cloacae, 0.25 µg/mL (≈ 0.427 µM). In addition, the Activity with Staphylococcus aureus [2] worked out at 17.3 mg/kg; in the data set with Staphylococcus aureus [9], 3 mg/kg. The values for the AUC(0-t) in data set [4] and in data set [13] were 1050 ng·h/mL and 107 ng·h/mL, respectively. Besides, the half-life in data set [5] was 239 min. For the same molecule, the bioavailability (in general, the share of a dose that reaches the circulation, judged against a reference dose that is usually intravenous) in data set [16] came to 1%. Further, the ED50 in the data set with Escherichia coli [21] turned out to be 3.5 mg/kg.
As for `CN(C)[C@@H]1C(O)=C(C(N)=O)C(=O)[C@@]2(O)C(O)=C3C(=O)c4c(O)c(NC(=O)CN5CCCC5)cc(F)c4C[C@H]3C[C@@H]12` [ERAVACYCLINE], the MIC was 0.0312 µg/mL (≈ 0.0559 µM) against Acinetobacter baumannii [1]; 0.125 µg/mL (≈ 0.224 µM) in the data set with Escherichia coli [3]; 1 µg/mL (≈ 1.79 µM) in the data set with Escherichia coli [6]; 0.5 µg/mL (≈ 0.895 µM) in the data set with Klebsiella pneumoniae [7]; 0.25 µg/mL (≈ 0.448 µM) in the data set on Staphylococcus aureus [8]; 0.0156 µg/mL (≈ 0.0279 µM) with Streptococcus pneumoniae [10]. The MIC was found to be 0.0156 µg/mL (≈ 0.0279 µM) in the data set on Streptococcus pneumoniae [11]; 0.0156 µg/mL (≈ 0.0279 µM) in the data set with Enterococcus faecalis [12]; 0.0156 µg/mL (≈ 0.0279 µM) against Staphylococcus aureus [14]; 0.125 µg/mL (≈ 0.224 µM) against Klebsiella pneumoniae [15]; 0.0156 µg/mL (≈ 0.0279 µM) against Staphylococcus aureus [17]; 0.0156 µg/mL (≈ 0.0279 µM) in the data set with Enterococcus faecalis [18]. The MIC with Pseudomonas aeruginosa came to 8 µg/mL (≈ 14.3 µM); with Escherichia coli [19] it was 0.0156 µg/mL (≈ 0.0279 µM); in the data set on Staphylococcus aureus [20] it was 0.0156 µg/mL (≈ 0.0279 µM); with Enterobacter cloacae, 0.125 µg/mL (≈ 0.224 µM). Besides, the values for the Activity in the data set with Staphylococcus aureus [2] and in the data set on Staphylococcus aureus [9] were 3 mg/kg and 0.6 mg/kg, respectively. Also, the Ratio in the data set on Staphylococcus aureus [22], with Escherichia coli [23], in the data set on Acinetobacter baumannii [28] and in the data set with Enterococcus faecalis [29] was 4 throughout. Besides, the AUC(0-t) – broadly, exposure summed from dosing to a finite time, without extrapolation to infinity – in data set [4] came to 1770 ng·h/mL; in [13] it was 295 ng·h/mL. Besides, the half-life was 414 min in [5] and 240 min in [26]. Moreover, the pIC50 (commonly −log10 of the IC50, conventionally taken in molar units) against Bacterial 70S ribosome is 6.21. Moreover, the Ratio IC50 in the data set with Escherichia coli [24] was determined as 7. This molecule also registered a bioavailability in data set [16] of 1.7%. Moreover, the Vd in data set [25] amounted to 3.2 L/kg. For the same molecule, the clearance – broadly, a measure of how efficiently the substance is removed, as volume per time – in data set [27] is 9.4 mL/min/kg. Further, the ED50 in the data set with Escherichia coli [21] was 1.3 mg/kg.
Regarding `CN[C@H](CC(C)C)C(=O)N[C@H]1C(=O)N[C@@H](CC(N)=O)C(=O)N[C@H]2C(=O)N[C@H]3C(=O)N[C@H](C(=O)N[C@H](C(=O)O)c4cc(O)cc(O)c4-c4cc3ccc4O)[C@H](O)c3ccc(c(Cl)c3)Oc3cc2cc(c3O[C@@H]2O[C@H](CO)[C@@H](O)[C@H](O)[C@H]2O[C@H]2C[C@](C)(N)[C@H](O)[C@H](C)O2)Oc2ccc(cc2Cl)[C@H]1O` [VANCOMYCIN], the Activity in the data set with Staphylococcus aureus [2] turned out to be 10 mg/kg; in the data set on Staphylococcus aureus [9] it was 0.75 mg/kg.
Consider `CN(C)[C@@H]1C(O)=C(C(N)=O)C(=O)[C@@]2(O)C(O)=C3C(=O)c4c(O)cccc4[C@@](C)(O)[C@H]3C[C@@H]12` [TETRACYCLINE], for which the MIC in the data set with Acinetobacter baumannii [1] is 1 µg/mL (≈ 2.25 µM); against Escherichia coli [6], over 64 µg/mL; in the data set on Klebsiella pneumoniae [7], over 64 µg/mL; against Streptococcus pneumoniae [10], 0.25 µg/mL (≈ 0.563 µM); in the data set on Enterococcus faecalis [12], 64 µg/mL (≈ 144 µM); against Staphylococcus aureus [14], 64 µg/mL (≈ 144 µM). Moreover, the MIC in the data set on Klebsiella pneumoniae [15] was 2 µg/mL (≈ 4.5 µM); in the data set with Enterococcus faecalis [18], 16 µg/mL (≈ 36 µM); against Pseudomonas aeruginosa, 16 µg/mL (≈ 36 µM); in the data set with Escherichia coli [19] it was over 1 µg/mL; with Staphylococcus aureus [20], 0.125 µg/mL (≈ 0.281 µM); with Enterobacter cloacae it was 1 µg/mL (≈ 2.25 µM). The bioavailability stood at 60% in [30] and 14.9% in data set [16]. Moreover, the AUC(0-t) is 3080 ng·h/mL in data set [4] and 4540 ng·h/mL in data set [13]. For the same molecule, at Bacterial 70S ribosome, the pIC50 is 5.34. Moreover, the CL in the data set with Rattus norvegicus came out at 0.542 L/h/kg.
